The values that follow come from patent US11421001B2, “Template-fixed peptidomimetics” (UNIVERSITAET ZUERICH, priority 2007, dated 2022).

Data set [1] can be described thus: Cytotoxicity assay (MTT reduction). The following applies: human, HELA cells (Acc57), peptides at 12.5, 25 and 50 μM, trend line, read-out: Cyto-toxicity LC50/GI50 Hela cells. Type of data set: cell-based. As for the experimental part: The cytotoxicity of the peptides to HELA cells (Acc57) and COS-7 cells (CRL-1651) was determined using the MTT reduction assay [see ref. 6 and 7, below]. Briefly the method was as follows: HELA cells and COS-7 cells were seeded at 7.0×10^3 and, respectively, 4.5×10^3 cells per well and grown in 96-well microtiter plates for 24 hours at 37° C. at 5% CO2. At this point, time zero (Tz) was determined by MTT reduction (see below). The supernatant of the remaining wells was discarded, and fresh medium and the peptides in serial dilutions of 12.5, 25 and 50 μM were pipetted into the wells. Each peptide concentration was assayed in triplicate. Incubation of the cells was continued for 48 hours at 37° C. at 5% CO2. Wells were then washed once with PBS and subsequently 100 μl MTT reagent (0.5 mg/mL in medium RPMI1640 and, respectively, DMEM) was added to the wells. This was incubated at 37° C. for 2 hours and subsequently the medium was aspirated and 100 μl isopropanol was added to each well. The absorbance at 595 nm of the solubilized product was measured (OD595peptide). For each concentration averages were calculated from triplicates. The percentage of growth was calculated as follows: (OD595peptide−OD595Tz−OD595Empty well)/(OD595Tz−OD595Empty well)×100% and was plotted for each peptide concentration. […]
(Tetrazolium assays rely on reduction of a dye to a coloured formazan, in cell work by metabolically active cells.)

Data set [2] deals with human red blood cells (hRBC). As to the kind of experiment: Hemolysis. Type of data set: cell-based. The protocol: The peptides were tested for their hemolytic activity against human red blood cells (hRBC). Fresh hRBC were washed three times with phosphate buffered saline (PBS) by centrifugation for 10 min at 2000×g. Peptides at a concentration of 100 μM were incubated with 20% v/v hRBC for 1 hour at 37° C. The final erythrocyte concentration was approximately 0.9×10^9 cells per ml. A value of 0% resp. 100% cell lysis was determined by incubation of the hRBC in the presence of PBS alone and respectively 0.1% Triton X-100 in H2O. The samples were centrifuged and the supernatant was 20-fold diluted in PBS buffer and the optical density (OD) of the sample at […] was measured. The 100% lyses value (OD540H2O) gave an OD540 of approximately 1.3-1.8. Percent hemolysis was calculated as follows: (OD540peptide/OD540H2O)×100%.

The subject of data set [3] is CCRF-CEM cells, gradient of SDF-1. Put plainly: Chemotactic assay (cell migration assay). The data set is classed as cell-based. To be noted: 1 nM SDF-1, 4 hours. As for the experimental part: 2.7. Chemotactic Assay (Cell Migration Assay)
The chemotactic response of CCRF-CEM cells to a gradient of stromal cell-derived factor 1α (SDF-1) was measured using disposable assay plates from Neuroprobe (5μ pore size) (Gaithersburg, Md.), according to the manufacturer's directions and references therein [especially ref. 8, below]. Briefly, one […] flask was washed once with Dubecco's phosphate buffered saline (DPBS), and trypsinized for 10 minutes or until cells had lifted. The trypsin was neutralized by the addition of fresh medium containing serum and the cells were pelleted, washed once in DPBS, and resuspended at 1-0.5×10^7 cells/ml in RPMI+0.5% bovine serum albumin (BSA). 45 μl of cell suspension were mixed with 5 μl of 10-fold concentrated PEM peptide diluted in the same assay medium. 35 μl of this mixture were applied to the top of the assay filter. […] The optical absorbance at 595 nm (ABS595) was read using a Tecan Genios plate reader with Magellan software. The number of cells migrated was determined by comparing ABS595 values against a standard curve generated with a known number of cells in the assay plate and were plotted against SDF-1 concentration to obtain a sigmoidal curve and to determine the IC50 values. The values for IC50 were determined using the Trendline function in Microsoft Excel by fitting a logarithmic curve to the averaged datapoints.

Data set [4] is described as follows: Plasma stability, human plasma. The data set is classed as in vitro ADME. The following applies: read-out: Stability human Plasma t1/2.
The nature of data set [5]: Plasma stability, rat plasma. The data set is classed as in vitro ADME. To be noted: read-out: Stability rat Plasma t1/2.
Data set [6] is described as follows: Maximum tolerated dose in mice. Type of data set: in vivo, mouse. The following applies: CD1 mice, 120 mg/kg bolus, i.v, ip and sc. The protocol:
3.1. Maximum Tolerated Dose in Mice
a) The compound of Example 1, dispersed in Water for Injection or 0.9% physiological saline), was administered, in the preliminary study, by i.v. injection at dose levels of 35, 50, 70, 85, 100, 150, 250 or 500 mg/kg to groups consisting of one male and one female mouse (Crl:CD1(ICR)). In addition, two groups comprising two male and two female mice received dose levels of 90 and 100 mg/kg, respectively, and the 50 mg/kg dose level was repeated in a group comprising one male and one female.
b) Maximum tolerated dose studies (MTD) carried out with the compound of Example 2 using CD1 mice (3 mice/group) and was performed using i.v, ip and sc. administration.

Positions of bridges follow the written chain, without caps; N, C: chain ends. Non-standard residues stand in square brackets, D forms with d. Residues, ends and D or L forms follow the SMILES beside them. Dab = NCC[C@H](N)C(=O)O

The IC50 is the concentration needed to halve the response being measured. Low readings indicate higher potency, high ones lower potency.

For `C[C@@H]1NC(=O)[C@H](CO)NC(=O)[C@@H]2CSSC[C@H](NC(=O)[C@H](Cc3ccc(O)cc3)NC(=O)[C@H](CCCNC(=N)N)NC(=O)[C@H](CCN)NC(=O)[C@H]3CCCN3C1=O)C(=O)N[C@@H](Cc1ccc(O)cc1)C(=O)N[C@@H](CCC(N)=O)C(=O)N[C@@H](CCCCN)C(=O)N1CCC[C@@H]1C(=O)N1CCC[C@H]1C(=O)N[C@@H](Cc1ccc(O)cc1)C(=O)N[C@@H](Cc1c[nH]cn1)C(=O)N[C@@H](Cc1ccc(O)cc1)C(=O)N2` [Example 2] (cyclo(YHYCSA[dP][Dab]RYCYQK[dP]P); disulfide 4-11), in data set [1], the CC50 at 48 h was 94 µM. The “Hemo-lysis at 100 μM” value in data set [2] was 0.3. The IC50 in data set [3] was 0.5 µM. Further, the half-life at 10 µM in data set [4] is greater than 5 h. In addition, the half-life at 10 µM in data set [5] was greater than 5 h. Moreover, in data set [6], the “survival at highest dose tested” value is reported as “all animals survived” and the “symptoms at highest dose tested” value is listed as “only mild symptoms were observed”.
